The nature of series [1]: Cell cytotoxicity, CCK-8 assay. Format: cell-based. Particulars: African green monkey, Vero E6 cells. On the technique in general: Tetrazolium dyes change colour on reduction, which living cells bring about.
A further series has as its system VPS34. The settings on record: read-out: enzymatic inhibitory potency against VPS34; ref [30], [31], [32], [33]; cited from earlier work.
The nature of series [2]: Tissue distribution after ip administration. It counts as in vivo, mice. Particulars: 10 mg/kg ip.
The next series concerns the target CYP3A4 (Homo sapiens, UniProt P08684). The experiment in a line: Screening of cytochrome P450 enzymes responsible for degradation. Format: in vitro ADME. The settings on record: liver microsomes, CYP450 screening.
The nature of series [3]: Degradation in liver microsomes. It counts as in vitro ADME. Background: Liver microsomes are a subcellular fraction often used to study metabolism.
Series [4] can be described thus: Plasma PK profile after single intraperitoneal injection. Format: in vivo, C57BL/6 mice.

CYP3A4, sequence (P08684 whole entry, species assumed): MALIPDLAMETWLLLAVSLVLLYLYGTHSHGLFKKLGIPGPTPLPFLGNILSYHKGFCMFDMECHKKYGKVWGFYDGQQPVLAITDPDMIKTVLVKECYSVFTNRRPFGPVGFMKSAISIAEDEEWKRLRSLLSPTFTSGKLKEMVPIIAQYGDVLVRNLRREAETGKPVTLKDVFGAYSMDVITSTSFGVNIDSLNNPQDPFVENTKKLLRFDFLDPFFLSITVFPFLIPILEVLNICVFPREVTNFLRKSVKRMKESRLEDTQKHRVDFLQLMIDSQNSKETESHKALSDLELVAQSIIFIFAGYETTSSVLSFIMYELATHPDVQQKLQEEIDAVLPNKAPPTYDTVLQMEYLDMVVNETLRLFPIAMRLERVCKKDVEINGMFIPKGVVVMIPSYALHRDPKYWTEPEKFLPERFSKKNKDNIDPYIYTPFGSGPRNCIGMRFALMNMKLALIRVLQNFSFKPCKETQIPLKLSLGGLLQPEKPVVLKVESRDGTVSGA

What is called CC50 is the concentration giving 50% cytotoxicity. Read a high CC50 as lower toxicity to the cells. `CC(C)(O)CNc1ncc(-c2ccnc(Nc3ccnc(Cl)c3)n2)c(CC2CC2)n1` [VPS34-IN-1] returned a CC50 at 48 h in series [1] of 11 µM. Further, the IC50 in the series with VPS34 is 0.025 µM.
Compound `Nc1ncc(-c2ccnc(Nc3ccncc3)n2)c(CC2CC2)n1` [PIK-III] displayed a CC50 at 48 h in series [1] of 45.8 µM. The IC50 in the series on VPS34 is 0.018 µM.
In turn, `CC(C)C(=O)CN1c2nc(N3CCOC[C@H]3C)cc(=O)n2CC[C@H]1C(F)(F)F` [VPS34-IN-2, (2S)-8-[(3R)-3-methylmorpholin-4-yl]-1-(3-methyl-2-oxobutyl)-2-(trifluoromethyl)-3,4-dihydro-2H-pyrimido[1,2-a]pyrimidin-6-one] yielded a CC50 at 48 h in series [1] of 54.5 µM.
Broadly, the AUC(0-t) is the area under the concentration-time curve up to a stated or last time point. Low readings indicate low exposure, high ones high exposure. For orientation: Cmax means the maximum level reached in the sampled fluid or tissue. A word on the half-life: it is the time in which the quantity being followed falls by half. The low end stands for rapid decline, the high end for slow decline. As a reminder, the Tmax is the time from dosing to the highest level. For `C[C@@H]1COCCN1c1cc(=O)n2c(n1)N(Cc1cncc(Cl)c1)[C@H](C(F)(F)F)CC2` [SAR405], the “time to Cmax in tissues (cardiorespiratory and renal systems)” value in series [2] was no more than 10 min. In addition, the “degradation upon addition of 6β-hydroxytestosterone, a specific inhibitor of CYP3A4” value at CYP3A4 was “almost completely attenuated”. Also, the “time to extensive degradation to minimal levels in liver microsomes” value in series [3] is listed as […]. For the same compound, in series [4] (C57BL/6, mouse, ip, 10 mg/kg), the AUC(0-t) amounted to […], the Cmax was found to be 5820 ± 723 ng/mL and the half-life was […]. The Tmax in series [4] (C57BL/6, mouse, ip, 10 mg/kg, Tmax, mice, 10 mg/kg ip) was 8.4 ± 6 min. In addition, in series [4] (mice, 10 mg/kg ip), the CL was […]. The same compound returned a CC50 at 48 h in series [1] of […]. Further, the IC50 with VPS34 is […].
